Experimental data published in patent US12252524B2, “GIP/GLP1 co-agonist compounds” (Eli Lilly and Company, priority 2018, dated 2025).
Square brackets hold non-standard residues; d marks the D form. Peptide text beside a SMILES is read from it. αMePhe(2-F) = C[C@](N)(Cc1ccccc1F)C(=O)O; αMeY = C[C@](N)(Cc1ccc(O)cc1)C(=O)O; 4Pal = N[C@@H](Cc1ccncc1)C(=O)O; αMeL = CC(C)C[C@](C)(N)C(=O)O; Orn = NCCC[C@H](N)C(=O)O; Aib = CC(C)(N)C(=O)O

Legend:
[1] = molecular target: T1, gastric inhibitory peptide receptor (GIPR) (Homo sapiens, UniProt P48546); test: cAMP pharmacological functional assay in presence of casein, hGIPR; assay type: cell-based; conditions: HEK293 cells expressing hGIPR, 0.1% Casein, geometric mean; read-out: hGIPR cAMP Rel EC50 nM (SEM, n)
T1 sequence (P48546 22-466): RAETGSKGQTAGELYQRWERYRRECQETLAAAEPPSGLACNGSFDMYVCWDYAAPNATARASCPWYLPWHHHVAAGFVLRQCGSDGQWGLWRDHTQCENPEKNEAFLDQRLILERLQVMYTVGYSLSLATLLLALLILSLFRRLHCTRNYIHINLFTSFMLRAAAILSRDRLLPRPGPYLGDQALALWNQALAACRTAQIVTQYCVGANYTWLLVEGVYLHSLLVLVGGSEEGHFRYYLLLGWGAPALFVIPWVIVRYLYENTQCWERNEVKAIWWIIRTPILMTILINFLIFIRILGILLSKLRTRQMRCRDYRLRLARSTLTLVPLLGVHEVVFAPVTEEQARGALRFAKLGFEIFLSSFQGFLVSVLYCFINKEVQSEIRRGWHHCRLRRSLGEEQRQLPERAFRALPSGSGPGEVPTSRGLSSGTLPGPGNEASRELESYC

[2] = molecular target: human GLP-1 receptor (GLP-1R) (Homo sapiens, UniProt P43220); test: cAMP pharmacological functional assay in presence of casein, hGLP-1R; assay type: cell-based; conditions: HEK293 cells expressing hGLP-1R, 0.1% Casein, geometric mean; read-out: hGLP1R cAMP Rel EC50 nM (SEM, n)
Sequence of human GLP-1 receptor (GLP-1R) (P43220 24-463): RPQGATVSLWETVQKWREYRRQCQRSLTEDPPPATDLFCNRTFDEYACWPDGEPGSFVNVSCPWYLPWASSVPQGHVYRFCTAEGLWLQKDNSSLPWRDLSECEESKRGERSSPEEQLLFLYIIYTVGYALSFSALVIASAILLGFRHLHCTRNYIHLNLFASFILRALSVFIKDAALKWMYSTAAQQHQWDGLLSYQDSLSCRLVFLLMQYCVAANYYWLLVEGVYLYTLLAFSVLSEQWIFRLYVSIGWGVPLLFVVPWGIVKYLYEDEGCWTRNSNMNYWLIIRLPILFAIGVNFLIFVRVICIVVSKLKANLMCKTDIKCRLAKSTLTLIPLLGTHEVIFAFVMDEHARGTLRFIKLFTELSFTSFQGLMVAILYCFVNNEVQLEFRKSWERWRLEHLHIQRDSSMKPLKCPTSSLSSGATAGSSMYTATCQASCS

Structure (SMILES) | EC50 [1] | EC50 [2]
CC[C@H](C)[C@H](NC(=O)[C@H](CC(C)C)NC(=O)[C@H](Cc1ccc(O)cc1)NC(=O)[C@@H](CCC(=O)O)NC(=O)[C@@H](NC(=O)[C@H](Cc1ccccc1)NC(=O)[C@H](CCC(=O)O)NC(=O)C(C)(C)NC(=O)[C@H](CCC(N)=O)NC(=O)[C@H](C)NC(=O)[C@H](CCC(N)=O)NC(=O)[C@H](CCCN)NC(=O)[C@H](CC(=O)O)NC(=O)[C@H](CC(C)C)NC(=O)[C@](C)(CC(C)C)NC(=O)[C@@H](NC(=O)[C@H](CO)NC(=O)[C@H](Cc1ccc(O)cc1)NC(=O)[C@H](CC(=O)O)NC(=O)[C@H](CO)NC(=O)[C@@H](NC(=O)[C@](C)(Cc1ccccc1F)NC(=O)[C@@H](NC(=O)CNC(=O)[C@H](CCC(=O)O)NC(=O)C(C)(C)NC(=O)[C@@H](N)Cc1ccc(O)cc1)[C@@H](C)O)[C@@H](C)O)[C@@H](C)CC)[C@@H](C)CC)C(=O)N[C@@H](CCC(=O)O)C(=O)NCC(=O)NCC(=O)N1CCC[C@H]1C(=O)N[C@@H](CO)C(=O)N[C@@H](CO)C(=O)NCC(=O)N[C@@H](C)C(=O)N1CCC[C@H]1C(=O)N1CCC[C@H]1C(=O)N1CCC[C@H]1C(=O)N[C@@H](CO)C(N)=O [Example 281] (H-Y[Aib]EGT[αMePhe(2-F)]TSDYSI[αMeL]LD[Orn]QAQ[Aib]EFI[dE]YLIEGGPSSGAPPPS-NH2) | 0.166 nM | 0.16 nM
CC[C@H](C)[C@H](NC(=O)[C@H](CC(C)C)NC(=O)[C@H](Cc1ccc(O)cc1)NC(=O)[C@@H](CCC(=O)O)NC(=O)[C@@H](NC(=O)[C@H](Cc1ccccc1)NC(=O)[C@H](CCC(=O)O)NC(=O)C(C)(C)NC(=O)[C@H](CCC(N)=O)NC(=O)[C@H](C)NC(=O)[C@H](CCCCN)NC(=O)[C@H](CCCN)NC(=O)[C@H](CC(=O)O)NC(=O)[C@H](CC(C)C)NC(=O)[C@](C)(CC(C)C)NC(=O)[C@@H](NC(=O)[C@H](CO)NC(=O)[C@H](Cc1ccc(O)cc1)NC(=O)[C@H](CC(=O)O)NC(=O)[C@H](CO)NC(=O)[C@@H](NC(=O)[C@](C)(Cc1ccccc1F)NC(=O)[C@@H](NC(=O)CNC(=O)[C@H](CCC(=O)O)NC(=O)C(C)(C)NC(=O)[C@@H](N)Cc1ccc(O)cc1)[C@@H](C)O)[C@@H](C)O)[C@@H](C)CC)[C@@H](C)CC)C(=O)N[C@@H](CCC(=O)O)C(=O)NCC(=O)NCC(=O)N1CCC[C@H]1C(=O)N[C@@H](CO)C(=O)N[C@@H](CO)C(=O)NCC(=O)N[C@@H](C)C(=O)N1CCC[C@H]1C(=O)N1CCC[C@H]1C(=O)N1CCC[C@H]1C(=O)N[C@@H](CO)C(=O)N[C@@H](CS)C(N)=O [Example 282] (H-Y[Aib]EGT[αMePhe(2-F)]TSDYSI[αMeL]LD[Orn]KAQ[Aib]EFI[dE]YLIEGGPSSGAPPPSC-NH2) | 0.323 nM | 0.247 nM
CC[C@H](C)[C@H](NC(=O)[C@H](CC(C)C)NC(=O)[C@H](Cc1ccc(O)cc1)NC(=O)[C@@H](CCC(=O)O)NC(=O)[C@@H](NC(=O)[C@H](Cc1ccccc1)NC(=O)[C@H](CCC(=O)O)NC(=O)C(C)(C)NC(=O)[C@H](CCC(N)=O)NC(=O)[C@H](C)NC(=O)[C@H](CCC(N)=O)NC(=O)[C@H](CCCN)NC(=O)[C@H](CC(=O)O)NC(=O)[C@H](CC(C)C)NC(=O)[C@](C)(CC(C)C)NC(=O)[C@@H](NC(=O)[C@H](CO)NC(=O)[C@H](Cc1ccc(O)cc1)NC(=O)[C@H](CC(=O)O)NC(=O)[C@H](CO)NC(=O)[C@@H](NC(=O)[C@](C)(Cc1ccccc1F)NC(=O)[C@@H](NC(=O)CNC(=O)[C@H](CCC(=O)O)NC(=O)C(C)(C)NC(=O)[C@@H](N)Cc1ccc(O)cc1)[C@@H](C)O)[C@@H](C)O)[C@@H](C)CC)[C@@H](C)CC)C(=O)N[C@@H](CCC(=O)O)C(=O)NCC(=O)NCC(=O)N1CCC[C@H]1C(=O)N[C@@H](CO)C(=O)N[C@@H](CO)C(=O)NCC(=O)N[C@@H](C)C(=O)N1CCC[C@H]1C(=O)N1CCC[C@H]1C(=O)N1CCC[C@H]1C(=O)N[C@@H](CO)C(=O)N[C@@H](CS)C(N)=O [Example 283] (H-Y[Aib]EGT[αMePhe(2-F)]TSDYSI[αMeL]LD[Orn]QAQ[Aib]EFI[dE]YLIEGGPSSGAPPPSC-NH2) | 0.301 nM | 0.155 nM
CC[C@H](C)[C@H](NC(=O)[C@H](CC(C)C)NC(=O)[C@](C)(Cc1ccc(O)cc1)NC(=O)[C@@H](CCC(=O)O)NC(=O)[C@@H](NC(=O)[C@H](Cc1ccccc1)NC(=O)[C@H](CCC(=O)O)NC(=O)C(C)(C)NC(=O)[C@H](CCC(N)=O)NC(=O)[C@H](C)NC(=O)[C@H](CCCCN)NC(=O)[C@H](CCCN)NC(=O)[C@H](CC(=O)O)NC(=O)[C@H](CC(C)C)NC(=O)[C@](C)(CC(C)C)NC(=O)[C@@H](NC(=O)[C@H](CO)NC(=O)[C@H](Cc1ccncc1)NC(=O)[C@H](CC(=O)O)NC(=O)[C@H](CO)NC(=O)[C@@H](NC(=O)[C@](C)(Cc1ccccc1F)NC(=O)[C@@H](NC(=O)CNC(=O)[C@H](CCC(=O)O)NC(=O)C(C)(C)NC(=O)[C@@H](N)Cc1ccc(O)cc1)[C@@H](C)O)[C@@H](C)O)[C@@H](C)CC)[C@@H](C)CC)C(=O)N[C@@H](CCC(=O)O)C(=O)NCC(=O)NCC(=O)N1CCC[C@H]1C(=O)N[C@@H](CO)C(=O)N[C@@H](CO)C(=O)NCC(=O)N[C@@H](C)C(=O)N1CCC[C@H]1C(=O)N1CCC[C@H]1C(=O)N1CCC[C@H]1C(=O)N[C@@H](CO)C(N)=O [Example 284] (H-Y[Aib]EGT[αMePhe(2-F)]TSD[4Pal]SI[αMeL]LD[Orn]KAQ[Aib]EFI[dE][αMeY]LIEGGPSSGAPPPS-NH2) | 0.113 nM | 0.0462 nM
CC[C@H](C)[C@H](NC(=O)[C@H](CC(C)C)NC(=O)[C@](C)(Cc1ccc(O)cc1)NC(=O)[C@@H](CCC(=O)O)NC(=O)[C@@H](NC(=O)[C@H](Cc1ccccc1)NC(=O)[C@H](CCC(=O)O)NC(=O)C(C)(C)NC(=O)[C@H](CCC(N)=O)NC(=O)[C@H](C)NC(=O)[C@H](CCC(N)=O)NC(=O)[C@H](CCCN)NC(=O)[C@H](CC(=O)O)NC(=O)[C@H](CC(C)C)NC(=O)[C@](C)(CC(C)C)NC(=O)[C@@H](NC(=O)[C@H](CO)NC(=O)[C@H](Cc1ccncc1)NC(=O)[C@H](CC(=O)O)NC(=O)[C@H](CO)NC(=O)[C@@H](NC(=O)[C@](C)(Cc1ccccc1F)NC(=O)[C@@H](NC(=O)CNC(=O)[C@H](CCC(=O)O)NC(=O)C(C)(C)NC(=O)[C@@H](N)Cc1ccc(O)cc1)[C@@H](C)O)[C@@H](C)O)[C@@H](C)CC)[C@@H](C)CC)C(=O)N[C@@H](CCC(=O)O)C(=O)NCC(=O)NCC(=O)N1CCC[C@H]1C(=O)N[C@@H](CO)C(=O)N[C@@H](CO)C(=O)NCC(=O)N[C@@H](C)C(=O)N1CCC[C@H]1C(=O)N1CCC[C@H]1C(=O)N1CCC[C@H]1C(=O)N[C@@H](CO)C(N)=O [Example 285] (H-Y[Aib]EGT[αMePhe(2-F)]TSD[4Pal]SI[αMeL]LD[Orn]QAQ[Aib]EFI[dE][αMeY]LIEGGPSSGAPPPS-NH2) | 0.0884 nM | 0.072 nM
